Reference: patent EP0832650A2 (ELI LILLY AND COMPANY, priority 1996, dated 1998)
Structures can show the parent of a compound that is named as a salt.

Test system: neuronal protein extravasation
Experiment: Neuronal protein extravasation in dura after electrical stimulation of the trigeminal ganglion
Format: in vivo, Harlan Sprague-Dawley rats or guinea pigs
Settings: 10 minutes before trigeminal ganglion stimulation, dose inhibiting extravasation by 50%, approximated from dose-response curve, species (rat or guinea pig) not given
Method: Harlan Sprague-Dawley rats (250-350 g) or guinea pigs from Charles River Laboratories (250-350 g) were anesthetized with sodium pentobarbital intraperitoneally (65 mg/kg or 45 mg/kg respectively) and placed in a stereotaxic frame (David Kopf Instruments) with the incisor bar set at -3.5 mm for rats or -4.0 mm for guinea pigs. Following a midline sagital scalp incision, two pairs of bilateral holes were drilled through the skull (6 mm posteriorly, 2.0 and 4.0 mm laterally in rats; 4 mm posteriorly and 3.2 and 5.2 mm laterally in guinea pigs, all coordinates referenced to bregma) . Pairs of stainless steel stimulating electrodes, insulated except at the tips, (Rhodes Medical Systems, Inc.) were lowered through the holes in both hemispheres to a depth of 9 mm (rats) or 10.5 mm (guinea pigs) from dura.
The femoral vein was exposed and a dose of the test compound was injected intravenously (1 mL/kg). Approximately 7 minutes later, a 50 mg/kg dose of Evans Blue, a fluorescent dye, was also injected intravenously. The Evans Blue complexed with proteins in the blood and functioned as a marker for protein extravasation. Exactly 10 minutes post-injection of the test compound, the left trigeminal ganglion was stimulated for 3 minutes at a current intensity of 1.0 mA (5 Hz, 4 msec duration) with a Model 273 potentiostat/ galvanostat (EG&G Princeton Applied Research).
Fifteen minutes following stimulation, the animals were killed by exsanguination with 40 mL of saline. The top of the skull was removed to facilitate the collection of the dural membranes. The membrane samples were removed from both hemispheres, rinsed with water, and spread flat on microscopic slides. Once dried, the tissues were coverslipped with a 70% glycerol/water solution.
A fluorescence microscope (Zeiss) equipped with a grating monochromator and a spectrophotometer was used to quantify the amount of Evans Blue dye in each sample. An excitation wavelength of approximately 535 nm was utilized and the emission intensity at 600 nm was determined. The microscope was equipped with a motorized stage and also interfaced with a personal computer. This facilitated the computer-controlled movement of the stage with fluorescence measurements at 25 points (500 µm steps) on each dural sample. The mean and standard deviation of the measurements was determined by the computer.
The extravasation induced by the electrical stimulation of the trigeminal ganglion was an ipsilateral effect (i.e. occurs only on the side of the dura in which the trigeminal ganglion was stimulated). This allows the other (unstimulated) half of the dura to be used as a control. The ratio of the amount of extravasation in the dura from the stimulated side compared to the unstimulated side dura was calculated. Saline controls yielded a ratio of approximately 2.0 in rats and 1.8 in guinea pigs. […]

SMILES	Inhibition of Protein Extravasation i.v. ID50
CNS(=O)(=O)Cc1ccc2[nH]cc(CCN(C)C)c2c1.O=C(O)CCC(=O)O [Compound I, 3-[2-(dimethylamino)ethyl]-N-methyl-1H-indole-5-methanesulfonamide butane-1,4-dioate (1:1)]	2.6e-08 mmol/kg
Cn1cc(CCN2CCC(c3c[nH]c4ccc(F)cc34)CC2)cn1 [Compound II, 5-fluoro-3-<1-<2-<1-methyl-1H-pyrazol-4-yl>ethyl>-4-piperidinyl>-1H-indole hydrochloride]	8.6e-10 mmol/kg
O=C(O)C(=O)O.Oc1ccc2[nH]cc(C3CCNCC3)c2c1 [Compound III, 5-hydroxy-3-(4-piperidinyl)-1H-indole oxalate]	8.9e-09 mmol/kg
CCN(CC)C1CCc2cccc(Cl)c2C1.Cl (centres unmarked) [Compound IV, 8-chloro-2-diethylamino-1,2,3,4-tetrahydronaphthalene hydrochloride]	1.2e-07 mmol/kg
CN(C)C1CCc2[nH]c3ccc(O)cc3c2C1 (centres unmarked) [Compound V, 6-hydroxy-3-dimethylamino-1,2,3,4-tetrahydrocarbazole]	8.7e-09 mmol/kg
